Reference: patent US11607423B2, “Combination of a cannabinoid and a chemotheraopeutic agent for the treatment of breast cancer” (Akos Biosciences, Inc., priority 2018, dated 2023)

Columns and labels:
[1] = test system: breast cancer cell line MCF7; experiment: MCF7 cell viability by cell counting with trypan blue after 48 h; format: cell-based; settings: CBD 0.1, 1 or 10 μM, FIG. 1
Source text: The breast cancer cell line MCF7, growing exponentially, was reset at a concentration of 1×10^4/ml and allowed to adhere overnight.

pERK = pERK level by western blotting in MCF7 cells, relative to GAPDH loading control; format: cell-based; settings: CBD 100 nM, 1 μM or 10 μM, 48 h, band density relative to GAPDH, 5 separate experiments, FIG. 2
Experimental: The breast cancer cell line MCF7, growing exponentially, was reset at a concentration of 1×10^4/ml and allowed to adhere overnight. Cannabidiol (CBD) was added at 100 nM, 1 μM, or 10 μM, and cells were harvested for standard western blotting techniques after 48 h. Immunoprobing was performed using anti-pERK antibodies, and the densities of each band determined. These values were then expressed relative to a GAPDH loading control.

C=C(C)[C@@H]1CCC(C)=C[C@H]1c1c(O)cc(CCCCC)cc1O [CBD, cannabidiol]
viability of cancer cells [1]: unaffected
pERK relative to controls (pERK): increased
